Test results: patent US20260324636A1, “COMPOSITION FOR PROVIDING PLANT WITH STRESS RESISTANCE” (KIRIN HOLDINGS KABUSHIKI KAISHA, priority 2022, published 2026)

What was measured:
[1] = system: Arabidopsis thaliana; assay: High-temperature stress resistance in pot culture (fresh weight of aboveground part), Example 2; assay type: in vivo, Arabidopsis thaliana (Col-0); details: 0.5 mM in tap water, 37° C. for 5 days
Method: (§1) The materials as used in Example 1 were used.
Jiffy-7 (42 mm diameter, Sakata Seed Corporation) was used as culture soil for pot culture. On Jiffy-7 prepared on the Disposable Tray DT-3 (AS ONE CORPORATION), a grain of Arabidopsis thaliana seeds was seeded and the plant was allowed to grow in an artificial climate chamber (Nippon Medical & Chemical Instruments Co., Ltd.) maintained at a temperature of 22° C. for a daily cycle of 16 hours light and 8 hours darkness.
On the third week after seeding, tap water (200 ml) containing 0.5 mM N-acetylglutamic acid was poured on the Disposable Tray. On the fourth week after seeding, the tray was transferred to an artificial climate chamber maintained at a temperature of 37° C. and subjected to the high-temperature treatment. When the tray was dried during the high-temperature treatment, tap water containing 0.5 mM N-acetylglutamic acid was added. The tray was removed from the artificial climate chamber 5 days after the initiation of the high-temperature treatment, and the weight of the aboveground part was measured.

[2] = system: HSP17.6C; assay: HSP17.6C gene expression by real-time PCR, Example 5; assay type: in vivo; details: Arabidopsis thaliana; 0.1 mM in medium, 6 hours after application, 22° C.; read-out: HSP17.6C expression level, increase vs control group
Method: as §1
The method as employed in Example 1 was employed.
N-acetylglutamic acid was applied to Arabidopsis thaliana 7 days after inoculation to the final concentration of 0.1 mM in the medium, followed by incubation for 2 hours or 6 hours. The incubator was maintained at a temperature of 22° C. for a daily cycle of 16 hours light and 8 hours darkness. After incubation, the samples were frozen with liquid nitrogen, and RNA was extracted using the RNeasy Plant Mini Kit (Thermo Fischer Scientific).
cDNA that would be necessary as a real-time PCR template was synthesized from the RNA obtained. 500 ng total RNA was used for each sample, and cDNA was synthesized using the Verso cDNA Synthesis Kit (Thermo Fischer Scientific). The synthesized cDNA was diluted to 5-fold with sterile distilled water and subjected to real-time PCR. For real-time PCR, a reaction solution containing HSFA2 (AGI code: AT2G26150) and HSP17.6C (AGI code: AT1G53540) as the target genes, ACTIN2 (AGI code: AT3G18780) as the reference gene, and TB Green Ex Taq II (TaKaRa) was prepared. PCR was performed with the use of the LightCycler® 480 System (Roche) with the number of amplification cycles of 50. […]
Thereafter, the relative expression level of the target genes upon N-acetylglutamic acid treatment were calculated by the ΔΔCt method using the Cp values obtained by real-time PCR.

[3] = system: H1HSP17.6C; assay: H1HSP17.6C gene expression by real-time PCR, Example 7; assay type: in vivo, hop; details: 1 mM in medium, 20° C. for 2 hours, leaves; read-out: H1HSP17.6C expression level, increase vs control
Source text: In order to design primers for the target genes necessary for gene expression analysis by real-time PCR, homologs of Arabidopsis thaliana high-temperature-responsive genes in hop were searched for. The amino acid sequences of Arabidopsis thaliana HSFA2 (AGI code: AT2G26150) and HSP17.6C (AGI code: AT1G53540) were obtained from TAIR (https://www.arabidopsis.org/), and the nucleotide sequences of the gene homologs were obtained using Hopbase (https://hopbase.cgrb.oregonstate.edu/). […] As the reference gene, the nucleotide sequence of the homolog of Arabidopsis thaliana EF1α (AGI code: AT1G18070) was obtained. The hop homolog genes were designated as H1HSFA2, H1HSP17.6C, and HIEF1α, respectively.
(§2) The materials as used in Example 4 were used.
The methods as employed in Example 4 were employed.
(§3) The leaves in the first and the second nodes from the apical buds of the tissue-cultured seedlings were sampled 1.5 months after the initiation of subculture and inoculated into a liquid medium consisting of a ½ Murashige and Skoog Plant Salt Mixture and 2 (w/v) % glucose. Specifically, a liquid medium was dispensed at 5 ml/well to a 6-well microplate (IWAKI), and 5 hop leaves were mounted thereon. […]
Thereafter, the relative expression level of the target gene upon N-acetylglutamic acid treatment was calculated by the ΔΔCt method.

[4] = system: H1ZAT10; assay: H1ZAT10 gene expression by real-time PCR, Example 13; assay type: in vivo, hop; details: 1 mM in medium, 20° C. for 2 hours, leaves; read-out: H1ZAT10 expression level, increase vs control
Source text: as §2
The medium as used in Example 4 were used.
In order to design primers for the target genes necessary for gene expression analysis by real-time PCR, homologs of Arabidopsis thaliana oxidation stress-responsive genes in hop were searched for. The amino acid sequences of Arabidopsis thaliana ZAT10 (AGI code: AT1G27730) and ZAT12 (AGI code: AT5G59820) were obtained from TAIR (https://www.arabidopsis.org/), and the nucleotide sequences of the gene homologs were obtained using Hopbase (http:/hopbase.cgrb.oregonstate.edu/). […] As the reference gene, the nucleotide sequence of the homolog of Arabidopsis thaliana EF1α (AGI code: AT1G18070) was obtained. The hop homolog genes were designated as H1ZAT10, H1ZAT12, and HIEF1α, respectively.
as §3, with “microplate,” for “microplate (IWAKI),”
Thereafter, the relative expression levels of the target genes upon N-acetylglutamic acid treatment were calculated by the ΔΔCt method.

## CC(=O)N[C@@H](CCC(=O)O)C(=O)O [N-acetylglutamic acid]
[1]
  fresh weight of the aboveground part, increase relative to the control group: 1.3 times
[2]
  fold induction at 100 µM: 1.2
[3]
  fold induction at 1000 µM: 1.8
[4]
  fold induction at 1000 µM: 1.7
